Source: US10577363B2, “Substituted piperidine compounds” (EPIZYME, INC., priority 2014, dated 2020)

How the values were obtained:
[1] = target: T1, SMYD3 (Homo sapiens (Human), UniProt Q9H7B4); test: SMYD3 biochemical assay (SPA, 3H-SAM methylation of MEKK2 protein substrate); settings: read-out: SMYD3 Biochem IC50*
Procedure, shortened: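 Full-length native human SMYD3 (E. coli-expressed, tags removed) preincubated with compounds 30 min at room temperature, then reaction started with 3H-SAM and GST-tagged MEKK2 protein in 25 mM Tris-Cl pH 8.0, 1 mM TCEP, 0.005% BSG, 0.005% Tween 20. Quenched with unlabelled SAM (100 uM final); 3H-MEKK2 counted by SPA.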

[2] = target: T1, SMYD3; test: SMYD3 cell assay (Trimethyl-MEKK2 In-Cell Western in 293T/17 cells); assay type: cell-based; settings: read-out: SMYD3 Cell IC50*
Procedure, shortened: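 In-Cell Western ratio of trimethyl-Lys260 MEKK2 to anti-flag signal; percent inhibition from DMSO and maximum-inhibition controls, IC50 by non-linear regression, triplicates.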

T1 sequence (Q9H7B4 whole entry): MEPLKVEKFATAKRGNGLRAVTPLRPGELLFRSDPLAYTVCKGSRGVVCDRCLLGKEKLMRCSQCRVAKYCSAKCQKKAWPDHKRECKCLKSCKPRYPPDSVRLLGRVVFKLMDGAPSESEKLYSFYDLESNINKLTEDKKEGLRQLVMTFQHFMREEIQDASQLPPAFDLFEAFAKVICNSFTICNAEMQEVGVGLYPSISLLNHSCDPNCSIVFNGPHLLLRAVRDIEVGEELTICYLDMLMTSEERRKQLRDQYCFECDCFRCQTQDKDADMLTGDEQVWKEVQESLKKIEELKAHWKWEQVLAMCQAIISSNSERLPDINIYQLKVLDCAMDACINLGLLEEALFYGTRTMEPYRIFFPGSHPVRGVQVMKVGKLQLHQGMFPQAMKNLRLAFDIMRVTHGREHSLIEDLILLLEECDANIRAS

SMILES	IC50 [1]	IC50 [2]
O=C(N[C@H]1C[C@H]2CC[C@@H](C1)N2S(=O)(=O)CC1CCN(Cc2ccc(F)cc2)CC1)c1cc(C2CC2)on1 [compound 778, 5-cyclopropyl-N-((1R,3r,5S)-8-(((1-(4-fluorobenzyl)piperidin-4-yl)methyl)sulfonyl)-8-azabicyclo[3.2.1]octan-3-yl)isoxazole-3-carboxamide]	1.18 nM	44.8 nM
CCc1cc(C(=O)N[C@H]2C[C@H]3CC[C@@H](C2)N3S(=O)(=O)CC2CCN(CCCC(F)(F)F)CC2)no1 [compound 779, 5-ethyl-N-((1R,3r,5S)-8-(((1-(4,4,4-trifluorobutyl)piperidin-4-yl)methyl)sulfonyl)-8-azabicyclo[3.2.1]octan-3-yl)isoxazole-3-carboxamide]	1.2 nM	28.1 nM
C[C@H]1C[C@@H](NC(=O)c2cc(C3CC3)on2)CCN1S(=O)(=O)N1CCC(N(C)CCO)CC1 [compound 780, 5-cyclopropyl-N-((2S,4S)-1-((4-((2-hydroxyethyl)(methyl)amino)piperidin-1-yl)sulfonyl)-2-methylpiperidin-4-yl)isoxazole-3-carboxamide]	1.21 nM	23.9 nM
CCCN1CCC(CS(=O)(=O)N2[C@@H]3CC[C@H]2C[C@@H](NC(=O)c2cc(C4CC4)on2)C3)CC1 [compound 781, 5-cyclopropyl-N-((1R,3r,5S)-8-(((1-propylpiperidin-4-yl)methyl)sulfonyl)-8-azabicyclo[3.2.1]octan-3-yl)isoxazole-3-carboxamide]	1.22 nM	27 nM
CN1CCC2(CC1)CN(S(=O)(=O)N1[C@@H]3CC[C@H]1C[C@@H](NC(=O)c1cc(C4CC4)on1)C3)C2 [compound 782, 5-cyclopropyl-N-((1R,3r,5S)-8-((7-methyl-2,7-diazaspiro[3.5]nonan-2-yl)sulfonyl)-8-azabicyclo[3.2.1]octan-3-yl)isoxazole-3-carboxamide]	1.23 nM	30.1 nM
C[C@H]1C[C@@H](NC(=O)c2cc(C3CC3)on2)CCN1S(=O)(=O)C1CCC(CN)C1 (stereo partly drawn) [compound 783, N-((2S,4S)-1-((3-(aminomethyl)cyclopentyl)sulfonyl)-2-methylpiperidin-4-yl)-5-cyclopropylisoxazole-3-carboxamide]	1.24 nM	51.7 nM
C[C@H]1C[C@@H](NC(=O)c2cc(C3CC3)on2)CCN1S(=O)(=O)C[C@@H]1CC[C@@H](N)C1 [compound 784, N-((2S,4S)-1-((((1R,3R)-3-aminocyclopentyl)methyl)sulfonyl)-2-methylpiperidin-4-yl)-5-cyclopropylisoxazole-3-carboxamide]	1.29 nM	39.3 nM
CCN1CCC(CS(=O)(=O)N2[C@@H]3CC[C@H]2C[C@@H](NC(=O)c2cc(C4CC4)on2)C3)CC1 [compound 785, 5-cyclopropyl-N-((1R,3r,5S)-8-(((1-ethylpiperidin-4-yl)methyl)sulfonyl)-8-azabicyclo[3.2.1]octan-3-yl)isoxazole-3-carboxamide]	1.36 nM	44.1 nM
CN[C@H]1CC[C@H](S(=O)(=O)N2[C@@H]3CC[C@H]2C[C@@H](NC(=O)c2cc(C4CC4)on2)C3)CC1 [compound 786, 5-cyclopropyl-N-((1R,3R,5S)-8-(((1r,4R)-4-(methylamino)cyclohexyl)sulfonyl)-8-azabicyclo[3.2.1]octan-3-yl)isoxazole-3-carboxamide]	1.37 nM	35.8 nM
CC(C)N1CCC(CS(=O)(=O)N2[C@@H]3CC[C@H]2C[C@@H](NC(=O)c2cc(C4CC4)on2)C3)CC1 [compound 787, 5-cyclopropyl-N-((1R,3r,5S)-8-(((1-isopropylpiperidin-4-yl)methyl)sulfonyl)-8-azabicyclo[3.2.1]octan-3-yl)isoxazole-3-carboxamide]	1.38 nM	38.6 nM
